The target in series [1] is T1, Recombinant rhinovirus 3C protease, serotype 14 (Human rhinovirus 14, UniProt P03303).
T1 construct: Recombinant rhinovirus 3C proteases; made in house
Briefly: Inhibition of rhinovirus 3C protease (FRET assay, kobs/[I]), serotype 14. Format: biochemical. The settings on record: pH 7.6; HRV-14 3C protease; read-out: kobs/[I] (3C protease inhibition activity). Summed up: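 kobs/[I] values came from progress curves of reactions started by adding 50-100 nM protease to buffer (50 mM tris pH 7.6, 1 mM EDTA, 2% DMSO) containing compound and ~1 μM quenched DABCYL-EDANS substrate. Rising EDANS fluorescence reported cleavage.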

Series [2] can be described thus: Cytotoxicity (CC50) in mock-infected H1-HeLa cells, XTT dye reduction. Format: cell-based, human. The note with it: human, H1-HeLa cells, mock-infected; HRV-14. The method, boiled down:
(§1)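 XTT dye reduction (formazan, 450/650 nm) in H1-HeLa cells, mock-infected, gave CC50.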

The subject of another series is H1-HeLa cells. Described as above. It is filed as cell-based, human. The method, boiled down: as §1
For another series, the system named is HRV-14. Put plainly: Antirhinoviral H1-HeLa cell culture assay (XTT cell protection, EC50), HRV-14. Format: cell-based, human rhinovirus (HRV) serotype-14 in H1-HeLa cells. The note with it: Rhinovirus B, HRV14, H1-HeLa. The method, boiled down:
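XTT dye reduction (450/650 nm) measured survival of H1-HeLa cells two days after HRV-14 infection at m.o.i. 0.13 in the presence of compound, giving EC50. The therapeutic index is CC50 divided by EC50.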
In general terms: Formazan colour is commonly taken as a measure of viable cells.

Series [3] deals with strains of human rhinovirus (HRV). Put plainly: Antirhinoviral H1-HeLa cell culture assay (XTT cell protection, EC50), other HRV strains. Format: cell-based, human rhinovirus in H1-HeLa cells. The note with it: read-out: EC50. Summed up:
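Protection of H1-HeLa cells from rhinovirus was scored two days post-infection via XTT dye reduction read at 450/650 nm, alongside mock-infected cells for toxicity. CC50/EC50 gives the therapeutic index.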

Where [4] appears, read: Human rhinovirus sp., HRV9, H1-HeLa, HRV-9.
Where [5] appears, read: Human rhinovirus sp., HRV10, H1-HeLa, HRV-10.
[6] abbreviates: Human rhinovirus sp., HRV25, H1-HeLa, HRV-25.
Where [7] appears, read: Human rhinovirus sp., HRV3, H1-HeLa, HRV-3.
The mark [8] stands for this setting: Human rhinovirus sp., HRV13, H1-HeLa, HRV-13.
The mark [9] stands for this setting: Human rhinovirus sp., HRV16, H1-HeLa, HRV-16.
Where [10] appears, read: Human rhinovirus sp., HRV39, H1-HeLa, HRV-39.
Setting [11] is: Human rhinovirus sp., HRV78, H1-HeLa, HRV-78.

SMILES strings stand for the structures. Like-named read-outs stand apart in the source and are kept apart here. Some results are limits rather than exact numbers.

These results are taken from US6514997B2, “Antipicornaviral compounds and compositions, their pharmaceutical uses, and materials for their synthesis” (Agouron Pharmaceuticals, Inc., priority 1999, dated 2003).

What is called CC50 is the concentration that lowers cell viability or growth by half. Read a high CC50 as better tolerance by the cells. The term EC50 denotes the concentration giving half of the maximal effect.

T1 sequence (P03303 1538-1719): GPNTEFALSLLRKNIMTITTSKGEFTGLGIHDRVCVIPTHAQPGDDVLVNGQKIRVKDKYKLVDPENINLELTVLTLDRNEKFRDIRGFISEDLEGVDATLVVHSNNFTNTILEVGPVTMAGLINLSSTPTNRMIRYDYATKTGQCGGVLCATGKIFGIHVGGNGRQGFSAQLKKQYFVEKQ

In the case of `Cc1cc(C(=O)Nc2cccn([C@@H](Cc3ccc(F)c(F)c3)C(=O)N[C@H](/C=C/C(=O)OC3CCCCCC3)C[C@@H]3CCNC3=O)c2=O)no1` [Compound 56, trans-(2′S,3″″″S,4S)-4-[3′-(3″,4″-Difluorophenyl)-2′-(3′″-{[1″″-(5′″″-methylisoxazol-3′″″-yl)methanoyl]aminol}-2″″-oxo-2″″H-pyridin-1″″-yl)propanoylamino]-5-(2″″″-oxopyrrolidin-3″″″-yl)pent-2-enoic Acid Cycloheptyl Ester], in series [1], the kinact/KI stood at 99000 M⁻¹ s⁻¹. Further, the CC50 at 2 days in series [2] is above 10 µM. Further, the CC50 in the series on H1-HeLa cells (HRV-1A), with H1-HeLa cells (HRV-9), in the series on H1-HeLa cells (HRV-10) and in the series with H1-HeLa cells (HRV-25) was above 10 µM each time. For the same molecule, the EC50 in the series on HRV-14 was determined as 0.163 µM; in series [3] (H1-HeLa, HRV-1A), 0.504 µM; in series [3] (setting [4]) it was 0.546 µM; in series [3] (setting [5]), 0.158 µM; in series [3] (setting [6]) it was 0.4 µM.
Consider `C#CC[C@@H](C(=O)N[C@H](/C=C/C(=O)OC1CCCCCC1)C[C@@H]1CCNC1=O)n1cccc(NC(=O)c2cc(C)on2)c1=O` [Compound 57, trans-(2′S,3′″″S,4S)-4-[2′-(3″-{[1′″-(5″″-Methylisoxazol-3″″-yl)methanoyl]amino}-2′″-oxo-2′″H-pyridin-1′″-yl)pent-4″-ynoylamino]-5-(2′″″-oxopyrrolidin-3′″″-yl)pent-2-enoic Acid Cycloheptyl Ester], for which the kinact/KI in series [1] is 47000 M⁻¹ s⁻¹. In series [2], this molecule had a CC50 at 2 days above 10 µM. Further, the CC50 in the series with H1-HeLa cells (HRV-1A), in the series with H1-HeLa cells (HRV-9), with H1-HeLa cells (HRV-10) and in the series on H1-HeLa cells (HRV-25) was above 10 µM each time. For the same molecule, the EC50 with HRV-14 stood at 0.422 µM; in series [3] (H1-HeLa, HRV-1A), 1.61 µM; in series [3] (setting [4]), 1.5 µM; in series [3] (setting [5]), 0.482 µM; in series [3] (setting [6]) it was 0.511 µM.
Turning to `Cc1cc(C(=O)Nc2cccn([C@@H](Cc3ccc(F)c(F)c3)C(=O)N[C@H](/C=C/C(=O)OC3CCC3)C[C@@H]3CCNC3=O)c2=O)no1` [Compound 58, trans-(2′S,3″″″S,4S)-4-[3′-(3″,4″-Difluorophenyl)-2′-(3′″-{[1″″-(5′″″-methylisoxazol-3′″″-yl)methanoyl]amino}-2″″-oxo-2″″H-pyridin-1″″-yl)propanoylamino]-5-(2″″″-oxopyrrolidin-3″″″-yl)pent-2-enoic Acid Cyclobutyl Ester], in series [1], the kinact/KI came out at 2.2e+06 M⁻¹ s⁻¹. The molecule also yielded a CC50 at 2 days in series [2] above 10 µM. Further, the CC50 in the series with H1-HeLa cells (HRV-1A), in the series on H1-HeLa cells (HRV-2), in the series with H1-HeLa cells (HRV-3), in the series with H1-HeLa cells (HRV-9), in the series on H1-HeLa cells (HRV-10) and with H1-HeLa cells (HRV-11) was above 10 µM in each case. Further, the CC50 in the series with H1-HeLa cells (HRV-13), with H1-HeLa cells (HRV-16), in the series on H1-HeLa cells (HRV-19), in the series with H1-HeLa cells (HRV-23), in the series with H1-HeLa cells (HRV-25) and in the series on H1-HeLa cells (HRV-39) was above 10 µM each time. Further, the CC50 in the series on H1-HeLa cells (HRV-78) and with H1-HeLa cells (HRV-Hanks) was above 10 µM in each case. Further, the EC50 was 0.003 µM with HRV-14; 0.014 µM in series [3] (H1-HeLa, HRV-1A); 0.013 µM in series [3] (H1-HeLa, HRV-2); 0.008 µM in series [3] (H1-HeLa, HRV-23); 0.021 µM in series [3] (Human rhinovirus sp., H1-HeLa, HRV-Hanks); 0.005 µM in series [3] (setting [7]). Moreover, the EC50 in series [3] (setting [4]) was 0.047 µM; in series [3] (setting [5]) it was 0.011 µM; in series [3] (Human rhinovirus sp., HRV11, H1-HeLa, HRV-11), 0.005 µM; in series [3] (setting [8]) it was 0.024 µM; in series [3] (setting [9]) it was 0.014 µM; in series [3] (Human rhinovirus sp., HRV19, H1-HeLa, HRV-19), 0.017 µM. Moreover, the EC50 in series [3] (setting [6]) stood at 0.016 µM; in series [3] (setting [10]), 0.02 µM; in series [3] (setting [11]), 0.014 µM.
As to `CC[C@@H](C(=O)N[C@H](/C=C/C(=O)OC1CCCCC1)C[C@@H]1CCNC1=O)n1cccc(NC(=O)c2cc(C)on2)c1=O` [Compound 60, trans-(2′S,3′″″S,4S)-4-[2′-(3″-{[1′″-(5″″-Methylisoxazol-3″″-yl)methanoyl]amino}-2′″oxo-2′″H-pyridin-1′″-yl)butanoylamino]-5-(2′″″-oxopyrrolidin-3′″″-yl)pent-2-enoic Acid Cyclohexyl Ester], in series [1], the kinact/KI is 23000 M⁻¹ s⁻¹. This molecule also yielded a CC50 at 2 days in series [2] above 10 µM. The CC50 in the series with H1-HeLa cells (HRV-1A), in the series on H1-HeLa cells (HRV-9), in the series with H1-HeLa cells (HRV-10) and with H1-HeLa cells (HRV-25) was above 10 µM in each case. The EC50 with HRV-14 came to 0.173 µM; in series [3] (H1-HeLa, HRV-1A), 0.558 µM; in series [3] (setting [4]), 0.516 µM; in series [3] (setting [5]) it was 0.368 µM; in series [3] (setting [6]), 0.251 µM.
For `Cc1cc(C(=O)Nc2cccn([C@@H](Cc3ccccc3)C(=O)N[C@H](/C=C/C(=O)OC(C)C)C[C@@H]3CCNC3=O)c2=O)no1` [Compound 66, trans-(2′S,3′″″S,4S)-4-[2′-(3″-{[1′″-(5″″-Methylisoxazol-3″″-yl)methanoyl]amino}-2′″-oxo-2′″H-pyridin-1′″-yl)-3″-phenylpropanoylamino]-5-(2′″″-oxopyrrolidin-3′″″-yl)pent-2-enoic Acid Isopropyl Ester], the kinact/KI in series [1] came to 480000 M⁻¹ s⁻¹. In series [2], this molecule displayed a CC50 at 2 days above 10 µM. For the same molecule, the CC50 in the series on H1-HeLa cells (HRV-3), in the series with H1-HeLa cells (HRV-9), in the series with H1-HeLa cells (HRV-13), in the series with H1-HeLa cells (HRV-16), with H1-HeLa cells (HRV-39) and in the series with H1-HeLa cells (HRV-78) was above 10 µM each time. Besides, the EC50 is 0.155 µM in the series on HRV-14; 0.056 µM in series [3] (setting [7]); 0.196 µM in series [3] (setting [4]); 0.057 µM in series [3] (setting [8]); 0.011 µM in series [3] (setting [9]); 0.022 µM in series [3] (setting [10]). For the same molecule, the EC50 in series [3] (setting [11]) was found to be 0.015 µM.
Consider `Cc1cc(C(=O)Nc2cccn([C@@H](Cc3ccc(F)cc3)C(=O)N[C@H](/C=C/C(=O)OC(C)C)C[C@@H]3CCNC3=O)c2=O)no1` [Compound 67, trans-(2′S,3″″″S)-4-[3′-(4″-Fluorophenyl)-2′-(3′″-{[1″″-(5′″″-methylisoxazol-3′″″-yl)methanoyl]amino}-2″″-oxo-2″″H-pyridin-1″″-yl)propanoylamino]-5-(2″″″-oxopyrrolidin-3″″″-yl)pent-2-enoic Acid Isopropyl Ester], for which, in series [1], the kinact/KI was found to be 462000 M⁻¹ s⁻¹. This molecule showed a CC50 at 2 days in series [2] above 10 µM. In addition, the CC50 in the series with H1-HeLa cells (HRV-3), in the series on H1-HeLa cells (HRV-9), with H1-HeLa cells (HRV-13), with H1-HeLa cells (HRV-16), in the series with H1-HeLa cells (HRV-39) and in the series with H1-HeLa cells (HRV-78) was above 10 µM throughout. Besides, the EC50 was determined as 0.057 µM in the series on HRV-14; 0.019 µM in series [3] (setting [7]); 0.162 µM in series [3] (setting [4]); 0.162 µM in series [3] (setting [8]); 0.033 µM in series [3] (setting [9]); 0.038 µM in series [3] (setting [10]). In series [3] (setting [11]), the 50% effective concentration (EC50) amounted to 0.048 µM.
